Measurements as given in patent US20230172969A1, “Ophthalmic Composition” (Rohto Pharmaceutical Co., Ltd., priority 2020, published 2023).

Tested on: Japanese white rabbits
Assay: Dryness stress test using rabbits (methylene blue staining of corneas)
Assay type: in vivo, rabbit
Conditions: eyelids open 3 hours, 100 μL per eye, 0.5% w/v or 3% w/v in physiological saline, compared with sodium chondroitin sulfate around 20,000, p<0.01
Protocol: Sodium chondroitin sulfate having a weight average molecular weight of around 20,000 (Maruha Nichiro Corporation; sodium chondroitin sulfate in Japanese Pharmaceutical Codex) or sodium chondroitin sulfate having a weight average molecular weight of around 40,000 (SEIKAGAKU CORPORATION; grade N-K) was dissolved in a physiological saline solution (Otsuka Pharmaceutical Factory, Inc.) to 0.5% w/v or 3% w/v separately to prepare test substances.
Rabbits (Japanese white rabbits (KITAYAMA LABES CO., LTD.)) classified into five groups (n=5) according to the method of Nagano et al. (Journal of the Eye, 13(2), 267-270, 1996) were put under general anesthesia, rings obtained by cutting finger portions of gloves into a ring form were then installed on the right and left eyeballs, and the eyelids were opened forcedly. […] The corneas were excised from the eye surfaces, methylene blue dye was then extracted, and the absorbance at 660 nm was measured using the microplate reader Multiskan GO (Thermo Fisher Scientific K.K.). Since a cornea lesion is formed by eye dryness, and the amount of the dye attached to the cornea surfaces increases, it can be estimated that as the absorbance value increases, the eyes become dryer.

## sodium chondroitin sulfate
  absorbance at 660 nm (methylene blue dye extracted from corneas): remarkably low
